Experimental data: the supplement of paper PMC10307832

What was measured:
Experiment in all cases: relative viability (nuclei count vs DMSO), 5 days (fraction); higher = more cells survive
201T = test system: 201T
Summary of the method: (§1)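 The day after seeding in 1536-well plates, lung cancer cell lines were treated by pin tool with a single drug, or with a fixed anchor-drug dose together with five library-drug doses (not always all listed) in √10 steps. After 5 days, a combined fix-and-stain solution (final 0.05% Triton X-100, 1% formaldehyde, 1 ug/ml Hoechst) was added. Nuclei counted on 4× images gave relative viability as treated counts over vehicle counts, reported as the median of duplicate plates.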

A-427 = test system: A-427
Summary of the method: as §1

H3255 = test system: H3255
Summary of the method: as §1

HCC-44 = test system: HCC-44
Summary of the method: as §1

LC-2-ad = test system: LC-2-ad
Summary of the method: as §1

LCLC-103H = test system: LCLC-103H
Summary of the method: as §1

LCLC-97TM1 = test system: LCLC-97TM1
Summary of the method: as §1

LK-2 = test system: LK-2
Summary of the method: as §1

LU99A = test system: LU99A
Summary of the method: as §1

NCI-H1793 = test system: NCI-H1793
Summary of the method: as §1

NCI-H2347 = test system: NCI-H2347
Summary of the method: as §1

NCI-H23 = test system: NCI-H23
Summary of the method: as §1

NCI-H460 = test system: NCI-H460
Summary of the method: as §1

NCI-H596 = test system: NCI-H596
Summary of the method: as §1

NCI-H727 = test system: NCI-H727
Summary of the method: as §1

PC-14 = test system: PC-14
Summary of the method: as §1

PC-3 [JPC-3] = test system: PC-3 [JPC-3]
Summary of the method: as §1

SW 900 = test system: SW 900
Summary of the method: as §1

Which results are given for `O=c1cc(N2CCOCC2)oc2c(-c3cccc4c3sc3ccccc34)cccc12` + NC(=O)Nc1cc(-c2cccc(F)c2)sc1C(=O)N[C@H]1CCCNC1 [AZD7762] (partner 0.2 µM)?
relative viability (201T; first compound 0.01 µM): 0.624; relative viability (201T; first compound 0.03162 µM): 0.619; relative viability (201T; first compound 0.1 µM): 0.615; relative viability (201T; first compound 0.3162 µM): 0.585; relative viability (201T; first compound 1 µM): 0.583; relative viability (A-427; first compound 0.01 µM): 0.731; relative viability (A-427; first compound 0.03162 µM): 0.767; relative viability (A-427; first compound 0.1 µM): 0.529; relative viability (A-427; first compound 0.3162 µM): 0.795; relative viability (A-427; first compound 1 µM): 0.735; relative viability (H3255; first compound 0.01 µM): 0.901; relative viability (H3255; first compound 0.03162 µM): 0.933; relative viability (H3255; first compound 0.1 µM): 0.845; relative viability (H3255; first compound 0.3162 µM): 0.822; relative viability (H3255; first compound 1 µM): 0.852; relative viability (HCC-44; first compound 0.01 µM): 1.03; relative viability (HCC-44; first compound 0.03162 µM): 1.08; relative viability (HCC-44; first compound 0.1 µM): 0.973; relative viability (HCC-44; first compound 0.3162 µM): 1.01; relative viability (HCC-44; first compound 1 µM): 0.966; relative viability (LC-2-ad; first compound 0.01 µM): 0.815; relative viability (LC-2-ad; first compound 0.03162 µM): 0.777; relative viability (LC-2-ad; first compound 0.1 µM): 0.831; relative viability (LC-2-ad; first compound 0.3162 µM): 0.817; relative viability (LC-2-ad; first compound 1 µM): 0.785; relative viability (LCLC-103H; first compound 0.01 µM): 0.799; relative viability (LCLC-103H; first compound 0.03162 µM): 0.777; relative viability (LCLC-103H; first compound 0.1 µM): 0.804; relative viability (LCLC-103H; first compound 0.3162 µM): 0.815; relative viability (LCLC-103H; first compound 1 µM): 0.688; relative viability (LCLC-97TM1; first compound 0.01 µM): 0.215; relative viability (LCLC-97TM1; first compound 0.03162 µM): 0.353; relative viability (LCLC-97TM1; first compound 0.1 µM): 0.0724; relative viability (LCLC-97TM1; first compound 0.3162 µM): 0.349; relative viability (LCLC-97TM1; first compound 1 µM): 0.22; relative viability (LK-2; first compound 0.01 µM): 0.468; relative viability (LK-2; first compound 0.03162 µM): 0.369; relative viability (LK-2; first compound 0.1 µM): 0.262; relative viability (LK-2; first compound 0.3162 µM): 0.369; relative viability (LK-2; first compound 1 µM): 0.354; relative viability (LU99A; first compound 0.01 µM): 0.37; relative viability (LU99A; first compound 0.03162 µM): 0.415; relative viability (LU99A; first compound 0.1 µM): 0.438; relative viability (LU99A; first compound 0.3162 µM): 0.314; relative viability (LU99A; first compound 1 µM): 0.384; relative viability (NCI-H1793; first compound 0.01 µM): 0.593; relative viability (NCI-H1793; first compound 0.03162 µM): 0.38; relative viability (NCI-H1793; first compound 0.1 µM): 0.233; relative viability (NCI-H1793; first compound 0.3162 µM): 0.505; relative viability (NCI-H1793; first compound 1 µM): 0.464; relative viability (NCI-H2347; first compound 0.01 µM): 0.843; relative viability (NCI-H2347; first compound 0.03162 µM): 0.791; relative viability (NCI-H2347; first compound 0.1 µM): 0.601; relative viability (NCI-H2347; first compound 0.3162 µM): 0.714; relative viability (NCI-H2347; first compound 1 µM): 0.601; relative viability (NCI-H23; first compound 0.01 µM): 0.306; relative viability (NCI-H23; first compound 0.03162 µM): 0.309; relative viability (NCI-H23; first compound 0.3162 µM): 0.307; relative viability (NCI-H23; first compound 1 µM): 0.272; relative viability (NCI-H460; first compound 0.01 µM): 0.518; relative viability (NCI-H460; first compound 0.03162 µM): 0.622; relative viability (NCI-H460; first compound 0.1 µM): 0.451; relative viability (NCI-H460; first compound 0.3162 µM): 0.589; relative viability (NCI-H460; first compound 1 µM): 0.636; relative viability (NCI-H596; first compound 0.01 µM): 1.19; relative viability (NCI-H596; first compound 0.03162 µM): 1.2; relative viability (NCI-H596; first compound 0.1 µM): 0.75; relative viability (NCI-H596; first compound 0.3162 µM): 1.18; relative viability (NCI-H596; first compound 1 µM): 1.08; relative viability (NCI-H727; first compound 0.01 µM): 0.583; relative viability (NCI-H727; first compound 0.03162 µM): 0.486; relative viability (NCI-H727; first compound 0.1 µM): 0.423; relative viability (NCI-H727; first compound 0.3162 µM): 0.596; relative viability (NCI-H727; first compound 1 µM): 0.575; relative viability (PC-14; first compound 0.01 µM): 0.306; relative viability (PC-14; first compound 0.03162 µM): 0.322; relative viability (PC-14; first compound 0.1 µM): 0.116; relative viability (PC-14; first compound 0.3162 µM): 0.516; relative viability (PC-14; first compound 1 µM): 0.27; relative viability (PC-3 [JPC-3]; first compound 0.01 µM): 0.65; relative viability (PC-3 [JPC-3]; first compound 0.03162 µM): 0.855; relative viability (PC-3 [JPC-3]; first compound 0.1 µM): 0.87; relative viability (PC-3 [JPC-3]; first compound 0.3162 µM): 0.954; relative viability (PC-3 [JPC-3]; first compound 1 µM): 0.834; relative viability (SW 900; first compound 0.03162 µM): 0.748; relative viability (SW 900; first compound 0.1 µM): 0.378; relative viability (SW 900; first compound 0.3162 µM): 0.702; relative viability (SW 900; first compound 1 µM): 0.497
